Assay results published in patent US9062041B2 (Bayer Intellectual Property GmbH, priority 2011, dated 2015).

Columns and labels:
Format in all cases: cell-based
[1] = molecular target: EP2 subtype of the human PGE2 receptor (Homo sapiens, UniProt P43116); assay: cAMP antagonism test on the human EP2 receptor (HTRF cAMP detection); conditions: hEP2 receptor, read-out: Antagonism hEP2 IC50
Source text: 1. Detection of Antagonism to the Human Prostaglandin E2 (Subtype EP2) Receptor Signal
(§1) The binding of PGE2 to the EP2 subtype of the human PGE2 receptor induces the activation of membrane-located adenylate cyclases and leads to the formation of cAMP. In the presence of the phosphodiesterase inhibitor IBMX, the cAMP accumulated owing to this stimulation and released by cell lysis is used in a competitive detection method. In this test, the cAMP present in the lysate competes with a fluorescence-labelled cAMP (cAMP-d2) for binding to an Eu cryptate-labelled anti-cAMP antibody.
(§2) In the absence of cellular cAMP, a maximal signal is produced, which is attributable to the binding of this cAMP-d2 molecule to the antibody. After excitation of the […] at 337 nm, there is a fluorescence resonance energy transfer (FRET) to the Eu cryptate molecules of the anti-cAMP antibody (labelled therewith), followed by a long-lasting emission signal at 665 nm (and at […]). Both signals are measured in a suitable measurement instrument with a time delay, i.e. after decay of the background fluorescence. Any increase in the low FRET signal caused by prostaglandin E2 administration (measured as well ratio change=emission665 nm/emission620 nm*10000) indicates the action of antagonists.
1.2.1. Test for Antagonism (Data Per Well of a 384-Well Plate):
(§3) To a test plate with the substance solutions already added (0.05 μl; 100% DMSO, concentration range from 0.8 nM-16.5 μM) were added 4 μl of a cAMP-d2/cell suspension (625000 cells/ml). After a 20-minute preincubation at room temperature (RT), 2 μl of a 3×PGE2 solution (1.5 nM, in PBS-IBMX) were added and incubated in the presence of the agonist for a further 60 mins at RT (volume: ˜6 μl). Next the reaction was stopped by addition of 2 μl of lysis buffer and incubated for a further 20 mins at RT before the actual measurement (volume: ˜8 μl).

[2] = molecular target: EP4 subtype of the human PGE2 receptor (Homo sapiens, UniProt P35408); assay: cAMP antagonism test on the human EP4 receptor (HTRF cAMP detection); conditions: selectivity towards hEP4, IC50 measured by cAMP antagonism test
EP4 subtype of the human PGE2 receptor, sequence (P35408 whole entry): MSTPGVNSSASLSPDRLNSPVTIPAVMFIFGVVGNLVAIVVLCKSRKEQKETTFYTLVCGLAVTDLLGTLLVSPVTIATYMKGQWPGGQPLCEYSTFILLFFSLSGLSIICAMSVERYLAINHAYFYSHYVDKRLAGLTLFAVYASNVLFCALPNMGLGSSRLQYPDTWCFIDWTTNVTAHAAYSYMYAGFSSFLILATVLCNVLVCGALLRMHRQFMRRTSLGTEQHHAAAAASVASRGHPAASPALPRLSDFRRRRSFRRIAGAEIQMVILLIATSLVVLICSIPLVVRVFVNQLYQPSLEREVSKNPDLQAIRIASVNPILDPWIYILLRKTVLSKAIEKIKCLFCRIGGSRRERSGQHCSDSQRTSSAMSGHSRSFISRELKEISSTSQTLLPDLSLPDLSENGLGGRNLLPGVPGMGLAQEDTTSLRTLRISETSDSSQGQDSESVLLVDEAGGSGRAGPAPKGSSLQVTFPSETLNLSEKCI
Source text: 2. Detection of Antagonism to the Human Prostaglandin E2 (Subtype EP4) Receptor Signal
as §1, with “EP4” for “EP2”
as §2, with “cAMP” for “cAMP,”
2.2.1. Test for Antagonism (Data Per Well of a 384-Well Plate):
as §3, with “(312500” for “(625000”, “(0.3” for “(1.5”

[3] = molecular target: T1, human PGD receptor (Homo sapiens, UniProt Q13258); assay: cAMP antagonism test on the human prostaglandin D receptor (HTRF cAMP detection); conditions: selectivity towards hDP, IC50 measured by cAMP antagonism test
T1 sequence (Q13258 1-359): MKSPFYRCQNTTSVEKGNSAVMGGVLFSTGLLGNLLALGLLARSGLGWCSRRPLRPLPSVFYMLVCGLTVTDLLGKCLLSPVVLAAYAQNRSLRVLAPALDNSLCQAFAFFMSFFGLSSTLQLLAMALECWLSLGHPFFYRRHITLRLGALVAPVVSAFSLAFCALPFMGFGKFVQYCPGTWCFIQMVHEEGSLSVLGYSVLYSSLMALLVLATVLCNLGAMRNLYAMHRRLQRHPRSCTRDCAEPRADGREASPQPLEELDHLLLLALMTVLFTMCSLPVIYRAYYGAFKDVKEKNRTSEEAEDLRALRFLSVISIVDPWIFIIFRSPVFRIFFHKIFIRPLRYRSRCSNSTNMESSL
Source text: 3. Detection of Antagonism to the Human Prostaglandin D Receptor Signal
as §1, with “of prostaglandin D2” for “of PGE2”, “the” for “the EP2 subtype of the”, “human PGD” for “human PGE2”
as §2
3.2.1. Test for Antagonism (Data Per Well of a 384-Well Plate):
as §3, with “3×PGD2” for “3×PGE2”, “(6” for “(1.5”, “30” for “60”

EP2 subtype of the human PGE2 receptor, sequence (P43116 whole entry): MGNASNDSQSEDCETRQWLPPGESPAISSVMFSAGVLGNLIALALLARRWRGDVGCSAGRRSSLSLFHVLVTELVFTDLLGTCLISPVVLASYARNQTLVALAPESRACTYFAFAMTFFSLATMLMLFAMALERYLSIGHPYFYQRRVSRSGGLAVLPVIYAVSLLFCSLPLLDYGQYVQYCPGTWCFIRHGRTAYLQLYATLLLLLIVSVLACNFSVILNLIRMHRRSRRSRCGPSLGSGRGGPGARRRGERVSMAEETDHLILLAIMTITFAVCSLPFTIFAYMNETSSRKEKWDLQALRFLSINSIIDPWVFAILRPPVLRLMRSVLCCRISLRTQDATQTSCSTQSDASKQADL

IC50 [1] [nM] | Selectivity hEP2/hEP4 [2] | Selectivity hEP2/hDP [3] | SMILES
55.3 | xxx (xxx > 100) | xxx (xxx > 100) | COC(C)CNC(=O)c1ccc2nn(CC3CN(C(=O)c4ccc(Cl)cc4)C3)cc2c1C (single isomer, unassigned) [Example 140, (S or R)-2-{[1-(4-chlorobenzoyl)azetidin-3-yl]methyl}-N-(2-methoxypropyl)-4-methyl-2H-indazol-5-carboxamide]
713 | xx (xx: 10-100) | xx (xx: 10-100) | Cc1c(C(=O)NCC2COCCO2)ccc2nn(CC3CN(C(=O)c4ccc(Cl)cc4)C3)cc12 (single isomer, unassigned) [Example 142, (R or S)-2-{[1-(4-chlorobenzoyl)azetidin-3-yl]methyl}-N-(1,4-dioxan-2-ylmethyl)-4-methyl-2H-indazol-5-carboxamide]
36.8 | xxx (xxx > 100) | xxx (xxx > 100) | Cc1c(C(=O)NCC2COCCO2)ccc2nn(CC3CN(C(=O)c4ccc(Cl)cc4)C3)cc12 (single isomer, unassigned) [Example 143, (S or R)-2-{[1-(4-chlorobenzoyl)azetidin-3-yl]methyl}-N-(1,4-dioxan-2-ylmethyl)-4-methyl-2H-indazol-5-carboxamide]
18.8 | xxx (xxx > 100) | xxx (xxx > 100) | Cc1c(C(=O)NCC2CCCCO2)ccc2nn(CC3CN(C(=O)c4ccc(Cl)cc4)C3)cc12 (single isomer, unassigned) [Example 145, (R or S)-2-{[1-(4-chlorobenzoyl)azetidin-3-yl]methyl}-4-methyl-N-(3,4,5,6-tetrahydro-2H-pyran-2-ylmethyl)-2H-indazol-5-carboxamide]
52.6 | xxx (xxx > 100) | xxx (xxx > 100) | Cc1c(C(=O)NCC2CCCCO2)ccc2nn(CC3CN(C(=O)c4ccc(Cl)cc4)C3)cc12 (single isomer, unassigned) [Example 146, (S or R)-2-{[1-(4-chlorobenzoyl)azetidin-3-yl]methyl}-4-methyl-N-(3,4,5,6-tetrahydro-2H-pyran-2-ylmethyl)-2H-indazol-5-carboxamide]
29.4 | xxx (xxx > 100) | xxx (xxx > 100) | Cc1c(C(=O)NCC(C)OC2CCC2)ccc2nn(CC3CN(C(=O)c4ccc(Cl)cc4)C3)cc12 (single isomer, unassigned) [Example 155, (S or R)-2-{[1-(4-chlorobenzoyl)azetidin-3-yl]methyl}-N-[2-(cyclobutyloxy)-propyl]-4-methyl-2H-indazol-5-carboxamide]
184 | xx (xx: 10-100) | xx (xx: 10-100) | Cc1c(C(=O)NCC(C)OC2CCC2)ccc2nn(CC3CN(C(=O)c4ccc(Cl)cc4)C3)cc12 (single isomer, unassigned) [Example 156, (R or S)-2-{[1-(4-chlorobenzoyl)azetidin-3-yl]methyl}-N-[2-(cyclobutyloxy)-propyl]-4-methyl-2H-indazol-5-carboxamide]
25.1 | xxx (xxx > 100) | xxx (xxx > 100) | Cc1c(C(=O)NCC2CCCCO2)ccc2nn(CC3CCN(C(=O)c4ccc(Cl)cc4)CC3)cc12 (single isomer, unassigned) [Example 240, (R or S)-2-{[1-(4-chlorobenzoyl)piperidin-4-yl]methyl}-4-methyl-N-(3,4,5,6-tetrahydro-2H-pyran-2-ylmethyl)-2H-indazol-5-carboxamide]
9.03 | xxx (xxx > 100) | xxx (xxx > 100) | Cc1c(C(=O)NCC2CCCCO2)ccc2nn(CC3CCN(C(=O)c4ccc(Cl)cc4)CC3)cc12 (single isomer, unassigned) [Example 241, (S or R)-2-{[1-(4-chlorobenzoyl)piperidin-4-yl]methyl}-4-methyl-N-(3,4,5,6-tetrahydro-2H-pyran-2-ylmethyl)-2H-indazol-5-carboxamide]
223 | xx (xx: 10-100) | xx (xx: 10-100) | Cc1c(C(=O)NCC2COCCO2)ccc2nn(CC3CCN(C(=O)c4ccc(Cl)cc4)CC3)cc12 (single isomer, unassigned) [Example 414, (R or S)-2-{[1-(4-chlorobenzoyl)piperidin-4-yl]methyl}-N-(1,4-dioxan-2-ylmethyl)-4-methyl-2H-indazol-5-carboxamide]
21.3 | xxx (xxx > 100) | xxx (xxx > 100) | Cc1c(C(=O)NCC2COCCO2)ccc2nn(CC3CCN(C(=O)c4ccc(Cl)cc4)CC3)cc12 (single isomer, unassigned) [Example 415, (S or R)-2-{[1-(4-chlorobenzoyl)piperidin-4-yl]methyl}-N-(1,4-dioxan-2-ylmethyl)-4-methyl-2H-indazol-5-carboxamide]
10.7 | xxx (xxx > 100) | xxx (xxx > 100) | Cc1c(C(=O)NCC2CCCCO2)ccc2nn(CC3CCN(C(=O)c4ccc(Oc5ccc(C(F)(F)F)cc5)cc4)CC3)cc12 (single isomer, unassigned) [Example 416, (R or S)-4-methyl-N-(3,4,5,6-tetrahydro-2H-pyran-2-ylmethyl)-2-[(1-{4-[4-(trifluoromethyl)phenoxy]benzoyl}piperidin-4-yl)methyl]-2H-indazol-5-carboxamide]
